{"source": "patent US6982251B2", "about": "“Substituted 2-azetidinones useful as hypocholesterolemic agents” (Schering Corporation, priority 2000, dated 2006)", "key": {"Hyperlipidemic Hamster": {"test_system": "Hyperlipidemic Hamster", "assay": "In Vivo Assay of Hypolipidemic Agents Using the Hyperlipidemic Hamster", "settings": "oral gavage once daily, 7 days, percent change versus control; for % Reduction in Plasma Cholesterol: cholesterol diet, negative = lowering; for % Reduction in Cholesterol Esters: hepatic cholesterol esters", "description": "In Vivo Assay of Hypolipidemic Agents Using the Hyperlipidemic Hamster\nHamsters are separated into groups of six and given a controlled cholesterol diet (Purina Chow #5001 containing 0.5% cholesterol) for seven days. Diet consumption is monitored to determine dietary cholesterol exposure in the presence of test compounds. The animals are dosed with the test compound once daily beginning with the initiation of diet. Dosing is by oral gavage of 0.2 mL of corn oil alone (control group) or solution (or suspension) of test compound in corn oil. All animals moribund or in poor physical condition are euthanized. After seven days, the animals are anesthetized by IM injection of ketamine and sacrificed by decapitation. Blood is collected into Vacutainer™ tubes containing EDTA for plasma total cholesterol and triglyceride analysis and the liver excised for free and esterified cholesterol and triglyceride tissue analysis. Data is reported as percent reduction of plasma cholesterol and hepatic cholesterol esters versus control levels.\nData is reported as percent change (i.e., percent reduction in plasma cholesterol and in hepatic cholesterol esters) versus control, therefore, negative numbers indicate a positive cholesterol-lowering effect."}, "human jejunum microsomes": {"test_system": "human jejunum microsomes", "assay": "Incubation with human jejunum microsomes supplemented with UDPGA", "assay_type": "in vitro ADME", "settings": "No hydrolysis; after 2 hr incubation of human jejunum microsomes with 50 μM Compound 6A + UDPGA"}, "β-Glucuronidase": {"test_system": "β-Glucuronidase", "assay": "β-Glucuronidase hydrolysis of the glucuronide mixture obtained from jejunum microsomes", "assay_type": "in vitro ADME", "settings": "for Outcome of β-glucuronidase hydrolysis: after hydrolyzing for 18 h"}}, "data": [{"smiles": "O=C1[C@H](CC[C@H](O)c2ccc(F)cc2)[C@@H](c2ccc(O)cc2)N1c1ccc(F)cc1", "note": "[Compound 6A, ezetimibe]", "values": [{"measurement": "% Reduction in Plasma Cholesterol", "setting": "Hyperlipidemic Hamster; dose 1 mg/kg", "result": "−59", "unit": "%"}, {"measurement": "% Reduction in Cholesterol Esters", "setting": "Hyperlipidemic Hamster; dose 1 mg/kg", "result": "−95", "unit": "%"}, {"measurement": "% of Compound 6A", "setting": "human jejunum microsomes", "result": 32.06, "unit": "%"}, {"measurement": "% of Compound 6A", "setting": "β-Glucuronidase; Control: 180 min, No microsomes, No UDPGA", "result": 72.92, "unit": "%"}, {"measurement": "% of Compound 6A", "setting": "β-Glucuronidase; hydrolysis time 5 min", "result": 68.10, "unit": "%"}, {"measurement": "% of Compound 6A", "setting": "β-Glucuronidase; hydrolysis time 10 min", "result": 61.88, "unit": "%"}, {"measurement": "% of Compound 6A", "setting": "β-Glucuronidase; hydrolysis time 20 min", "result": 66.02, "unit": "%"}, {"measurement": "% of Compound 6A", "setting": "β-Glucuronidase; hydrolysis time 30 min", "result": 80.14, "unit": "%"}, {"measurement": "% of Compound 6A", "setting": "β-Glucuronidase; hydrolysis time 180 min", "result": 84.67, "unit": "%"}]}, {"smiles": "O=C(O)C1OC(O[C@@H](CCC2C(=O)N(c3ccc(F)cc3)C2c2ccc(O)cc2)c2ccc(F)cc2)[C@H](O)[C@@H](O)[C@@H]1O", "note": "(some centres unmarked) [Compound III]", "values": [{"measurement": "% of Compound III (Benzylic Glucuronide)", "setting": "human jejunum microsomes", "result": 32.14, "unit": "%"}, {"measurement": "Outcome of β-glucuronidase hydrolysis", "setting": "β-Glucuronidase", "result": "hydrolyzed to form a single Compound 6A peak"}, {"measurement": "% of Compound III (Benzylic Glucuronide)", "setting": "β-Glucuronidase; hydrolysis time 5 min", "result": 19.30, "unit": "%"}, {"measurement": "% of Compound III (Benzylic Glucuronide)", "setting": "β-Glucuronidase; hydrolysis time 10 min", "result": 18.58, "unit": "%"}, {"measurement": "% of Compound III (Benzylic Glucuronide)", "setting": "β-Glucuronidase; hydrolysis time 20 min", "result": 15.12, "unit": "%"}, {"measurement": "% of Compound III (Benzylic Glucuronide)", "setting": "β-Glucuronidase; hydrolysis time 30 min", "result": 11.22, "unit": "%"}, {"measurement": "% of Compound III (Benzylic Glucuronide)", "setting": "β-Glucuronidase; hydrolysis time 180 min", "result": 6.5, "unit": "%"}]}, {"smiles": "O=C(O)[C@H]1O[C@@H](Oc2ccc([C@@H]3[C@@H](CC[C@H](O)c4ccc(F)cc4)C(=O)N3c3ccc(F)cc3)cc2)[C@H](O)[C@@H](O)[C@@H]1O", "note": "[Example 1]", "values": [{"measurement": "% Reduction in Plasma Cholesterol", "setting": "Hyperlipidemic Hamster; dose 3 mg/kg", "result": "−58", "unit": "%"}, {"measurement": "% Reduction in Cholesterol Esters", "setting": "Hyperlipidemic Hamster; dose 3 mg/kg", "result": "−95", "unit": "%"}, {"measurement": "% of Example 1 (Phenolic Glucuronide)", "setting": "human jejunum microsomes", "result": 31.68, "unit": "%"}, {"measurement": "Relative rate of β-glucuronidase hydrolysis", "setting": "β-Glucuronidase; 5, 10, 20, 30 and 180 min", "result": "hydrolyzed at a faster rate than Compound III"}, {"measurement": "Outcome of β-glucuronidase hydrolysis", "setting": "β-Glucuronidase", "result": "hydrolyzed to form a single Compound 6A peak"}, {"measurement": "% of Example 1 (Phenolic Glucuronide)", "setting": "β-Glucuronidase; hydrolysis time 5 min", "result": 2.23, "unit": "%"}, {"measurement": "% of Example 1 (Phenolic Glucuronide)", "setting": "β-Glucuronidase; hydrolysis time 10 min", "result": 1.04, "unit": "%"}, {"measurement": "% of Example 1 (Phenolic Glucuronide)", "setting": "β-Glucuronidase; hydrolysis time 20 min", "result": 0.77, "unit": "%"}, {"measurement": "% of Example 1 (Phenolic Glucuronide)", "setting": "β-Glucuronidase; hydrolysis time 30 min", "result": 0, "unit": "%"}, {"measurement": "% of Example 1 (Phenolic Glucuronide)", "setting": "β-Glucuronidase; hydrolysis time 180 min", "result": 0, "unit": "%"}]}]}
